Target: T1, mAChR M4 (UniProt P08173)
T1 construct: hM1 and hM4 cDNAs were purchased from Missouri S&T cDNA Resource
T1 sequence (P08173 1-479): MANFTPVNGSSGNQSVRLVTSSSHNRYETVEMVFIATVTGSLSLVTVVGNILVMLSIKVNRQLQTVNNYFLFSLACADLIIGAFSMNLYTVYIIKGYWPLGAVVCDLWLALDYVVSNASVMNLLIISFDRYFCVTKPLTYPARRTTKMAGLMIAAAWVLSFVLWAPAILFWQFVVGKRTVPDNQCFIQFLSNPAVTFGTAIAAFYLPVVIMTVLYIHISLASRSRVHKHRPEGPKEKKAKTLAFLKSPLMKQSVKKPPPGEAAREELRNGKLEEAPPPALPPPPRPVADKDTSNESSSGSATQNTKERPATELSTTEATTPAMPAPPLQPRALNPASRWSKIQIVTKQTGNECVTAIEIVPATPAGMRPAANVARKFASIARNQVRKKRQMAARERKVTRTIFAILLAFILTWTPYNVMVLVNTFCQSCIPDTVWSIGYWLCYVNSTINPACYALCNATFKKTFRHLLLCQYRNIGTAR
Assay: mAChR M4 cell-based functional assay (calcium mobilization, Fluo-4, FDSS)
Settings: for Emax (%)*: % ACh maximum at 30 μM; for pEC50: positive allosteric modulator activity, EC20 acetylcholine response; for pEC50 / EC50: CHO-K1 cells; for EC50: positive allosteric modulator activity: concentration-dependent increase in the EC20 acetylcholine response, >10 μM estimated for low potency (no plateau)
How it was run: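 CHO-K1 cells stably expressing hM4 or rM4 with chimeric Gqi5, loaded with Fluo-4 AM for 50 min at 37° C. Calcium read on FDSS 6000 over 300 s: compound added at 4 s, acetylcholine EC20 at 144 s and EC80 at 230 s. Agonist, PAM (EC20 increase) and antagonist (EC80 decrease) values fitted by four-parameter logistic.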

Row | Emax (%)* [%] | pEC50 | EC50 [µM] | SMILES
1 | 61 | 5.62 | 2.41 | Cc1cc(C)c2c(n1)sc1c(NCC3CC3)nn(C(=O)OC(C)(C)C)c12 [Compound 8, tert-butyl 3-((cyclopropylmethyl)amino)-6,8-dimethyl-1H-pyrazolo[3′,4′:4,5]thieno[2,3-b]pyridine-1-carboxylate]
2 | – | <5.00 | > 10 | COCCn1nc(NCc2ccco2)c2sc3nc(C)cc(C)c3c21 [Compound 167, N-(furan-2-ylmethyl)-1-(2-methoxyethyl)-6,8-dimethyl-1H-pyrazolo[3′,4′:4,5]thieno[2,3-b]pyridin-3-amine]
3 | 57 | 5.60 | 2.5 | Cc1ccc(CNc2nn(C)c3c2sc2nc(C)cc(C)c23)c(C)c1 [Compound 59, N-(2,4-dimethylbenzyl)-1,6,8-trimethyl-1H-pyrazolo[3′,4′:4,5]thieno[2,3-b]pyridin-3-amine]
4 | – | <5.00 | > 10 | Cc1cc(C)c2c(n1)sc1c(NC(C)CS(C)(=O)=O)nn(C)c12 (stereo not shown) [Compound 164, 1,6,8-trimethyl-N-(1-(methylsulfonyl)propan-2-yl)-1H-pyrazolo[3′,4′:4,5]thieno[2,3-b]pyridin-3-amine]
5 | 59 | 5.74 | 1.8 | COc1ccc(CNc2n[nH]c3c2sc2nc(C)ccc23)cc1 [Compound 72, N-(4-methoxybenzyl)-6-methyl-1H-pyrazolo[3′,4′:4,5]thieno[2,3-b]pyridin-3-amine]
6 | 50 | 6.72 | 0.19 | Cc1cc(C)c2c(n1)sc1c(NCc3cccc4c3OCO4)nn(C)c12 [Compound 84, N-(benzo[d][1,3]dioxol-4-ylmethyl)-1,6,8-trimethyl-1H-pyrazolo[3′,4′:4,5]thieno[2,3-b]pyridin-3-amine]
7 | 40 | <5.00 | > 10 | COC(=O)Cn1nc(NCc2ccc(S(C)(=O)=O)cc2)c2sc3nc(C)cc(C)c3c21 [Compound 117, methyl 2-(6,8-dimethyl-3-((4-(methylsulfonyl)benzyl)amino)-1H-pyrazolo[3′,4′:4,5]thieno[2,3-b]pyridin-1-yl)acetate]
8 | – | <5.00 | > 10 | Cc1cc(C)c2c(n1)sc1c(NC3CCN(C(C)C)CC3)nn(C)c12 [Compound 162, N-(1-isopropylpiperidin-4-yl)-1,6,8-trimethyl-1H-pyrazolo[3′,4′:4,5]thieno[2,3-b]pyridin-3-amine]
9 | 68 | 5.90 | 1.26 | Cc1cc(C)c2c(n1)sc1c(NCC3CC3)n[nH]c12 [Compound 7, N-(cyclopropylmethyl)-6,8-dimethyl-1H-pyrazolo[3′,4′:4,5]thieno[2,3-b]pyridin-3-amine]
10 | 37 | <5.00 | > 10 | Cc1cc(C)cc(CNc2nn(C)c3c2sc2nc(C)cc(C)c23)c1 [Compound 58, N-(3,5-dimethylbenzyl)-1,6,8-trimethyl-1H-pyrazolo[3′,4′:4,5]thieno[2,3-b]pyridin-3-amine]
11 | 70 | 6.08 | 0.84 | Cc1ccc2c(n1)sc1c(NCc3ccccc3)nn(C)c12 [Compound 53, N-benzyl-1,6-dimethyl-1H-pyrazolo[3′,4′:4,5]thieno[2,3-b]pyridin-3-amine]
12 | 74 | 7.09 | 0.081 | Cc1cc(C)c2c(n1)sc1c(NCc3ccc(S(C)(=O)=O)c(F)c3)nn(C)c12 [Compound 94, N-(3-fluoro-4-(methylsulfonyl)benzyl)-1,6,8-trimethyl-1H-pyrazolo[3′,4′:4,5]thieno[2,3-b]pyridin-3-amine]
13 | 65 | 6.59 | 0.26 | Cc1nc2sc3c(NCC4CC4)nn(C)c3c2c(C)c1Cl [Compound 19, 7-chloro-N-(cyclopropylmethyl)-1,6,8-trimethyl-1H-pyrazolo[3′,4′:4,5]thieno[2,3-b]pyridin-3-amine]
14 | 66 | 6.80 | 0.16 | Cc1cc(C)c2c(n1)sc1c(NCc3ccc4c(c3)OCCO4)nn(C)c12 [Compound 87, N-((2,3-dihydrobenzo[b][1,4]dioxin-6-yl)methyl)-1,6,8-trimethyl-1H-pyrazolo[3′,4′:4,5]thieno[2,3-b]pyridin-3-amine]
15 | 62 | 6.37 | 0.43 | Cc1cc(C)c2c(n1)sc1c(NC3CCCSC3)nn(CCO)c12 (stereo not shown) [Compound 113, 2-(6,8-dimethyl-3-((tetrahydro-2H-thiopyran-3-yl)amino)-1H-pyrazolo[3′,4′:4,5]thieno[2,3-b]pyridin-1-yl)ethanol]
16 | 78 | 6.00 | 1 | Cc1cc(C)c2c(n1)sc1c(NC3CCOCC3)nn(C)c12 [Compound 65, 1,6,8-trimethyl-N-(tetrahydro-2H-pyran-4-yl)-1H-pyrazolo[3′,4′:4,5]thieno[2,3-b]pyridin-3-amine]
17 | 48 | 5.85 | 1.4 | Cc1nc2sc3c(NCc4ccco4)n[nH]c3c2c(C)c1Cl [Compound 20, 7-chloro-N-(furan-2-ylmethyl)-6,8-dimethyl-1H-pyrazolo[3′,4′:4,5]thieno[2,3-b]pyridin-3-amine]
18 | 51 | <5.00 | > 10 | Cc1cc(C)c2c(n1)sc1c(NCc3cc4ccccc4n3C)nn(C)c12 [Compound 89, 1,6,8-trimethyl-N-((1-methyl-1H-indo1-2-yl)methyl)-1H-pyrazolo[3′,4′:4,5]thieno[2,3-b]pyridin-3-amine]
19 | 38 | <5.00 | > 10 | COc1cc(OC)cc(C(C)Nc2nn(C)c3c2sc2nc(C)cc(C)c23)c1 (stereo not shown) [Compound 48, N-(1-(3,5-dimethoxyphenyl)ethyl)-1,6,8-trimethyl-1H-pyrazolo[3′,4′:4,5]thieno[2,3-b]pyridin-3-amine]
20 | 70 | 6.43 | 0.37 | Cc1cc(C)c2c(n1)sc1c(NC3CCSCC3)nn(CCO)c12 [Compound 114, 2-(6,8-dimethyl-3-((tetrahydro-2H-thiopyran-4-yl)amino)-1H-pyrazolo[3′,4′:4,5]thieno[2,3-b]pyridin-1-yl)ethanol]
21 | – | <5.00 | > 10 | Cc1cc(C)c2c(n1)sc1c(NC3CCC(NC(=O)OC(C)(C)C)CC3)n[nH]c12 (stereo not shown) [Compound 139, tert-butyl (4-((6,8-dimethyl-1H-pyrazolo[3′,4′:4,5]thieno[2,3-b]pyridin-3-yl)amino)cyclohexyl)carbamate]
22 | – | <5.00 | > 10 | Cc1cc(C)cc(CNc2n[nH]c3c2sc2nc(C)c(Cl)c(C)c23)c1 [Compound 144, 7-chloro-N-(3,5-dimethylbenzyl)-6,8-dimethyl-1H-pyrazolo[3′,4′:4,5]thieno[2,3-b]pyridin-3-amine]
23 | 85 | 6.96 | 0.11 | Cc1cc(C)c2c(n1)sc1c(NCc3ccco3)nn(C)c12 [Compound 40, N-(furan-2-ylmethyl)-1,6,8-trimethyl-1H-pyrazolo[3′,4′:4,5]thieno[2,3-b]pyridin-3-amine]
24 | – | <5.00 | > 10 | COCCn1nc(N)c2sc3nc(C)cc(C)c3c21 [Compound 165, 1-(2-methoxyethyl)-6,8-dimethyl-1H-pyrazolo[3′,4′:4,5]thieno[2,3-b]pyridin-3-amine]
25 | – | <5.00 | > 10 | Cc1cc(C)c2c(n1)sc1c(NC(=O)c3ccccc3)nn(C)c12 [Compound 152, N-(1,6,8-trimethyl-1H-pyrazolo[3′,4′:4,5]thieno[2,3-b]pyridin-3-yl)benzamide]
26 | 52 | 5.52 | 3 | Cc1cc(C)c2c(n1)sc1c(NC3CCN(C)CC3)nn(C)c12 [Compound 74, 1,6,8-trimethyl-N-(1-methylpiperidin-4-yl)-1H-pyrazolo[3′,4′:4,5]thieno[2,3-b]pyridin-3-amine]
27 | 30 | <5.00 | > 10 | Cc1cc(C)c2c(n1)sc1c(NCC3CCNCC3)nn(C)c12 [Compound 123, 1,6,8-trimethyl-N-(piperidin-4-ylmethyl)-1H-pyrazolo[3′,4′:4,5]thieno[2,3-b]pyridin-3-amine]
28 | 37 | 5.27 | 5.4 | Cc1cc(C)c2c(n1)sc1c(N)nn(CCO)c12 [Compound 96, 2-(3-amino-6,8-dimethyl-1H-pyrazolo[3′,4′:4,5]thieno[2,3-b]pyridin-1-yl)ethanol]
29 | – | <5.00 | > 10 | Cc1cc(C)c2c(n1)sc1c(NC3CCN(C(C)C)CC3)n[nH]c12 [Compound 131, N-(1-isopropylpiperidin-4-yl)-6,8-dimethyl-1H-pyrazolo[3′,4′:4,5]thieno[2,3-b]pyridin-3-amine]
